How the values were obtained:
[1] = tested on: cultivar TV5866RR; experiment: Growth cabinet: nitrogenase activity (relative ARA) under soil-water deficits; format: in vivo, soybean (Glycine max)
Procedure: Plants were established in flow-through pots (Purcell et al., 1997) for nondestructive measurement of acetylene-reduction activity (ARA) as an indicator of relative nitrogenase activity. Pots were constructed of 10-cm-diameter, 40-cm-long polyvinyl chloride pipe, sealed at the bottom and top with end caps. Fittings were inserted into the bottom for drainage and introduction of air samples during ARA measurements, and into the top for air exhaust and sampling. Pot tare weights were recorded prior to adding potting mixture. Potting media and nutrients were the same as described in Examples 1-3. […] After allowing excess water to drain for 12 h, pot capacity weights were recorded. […]
ARA was measured beginning 28 DAE by introducing a 9:1 air to acetylene mixture at 0.5 L min^−1 into the bottom of the pots that were sealed around the plant root system. […] Ethylene concentration in the gas samples was quantified by gas chromatography using a flame ionization detector and a Porapak N column (de Silva et al., 1996). […] Ethylene concentrations were expressed as μmol C2H4 plant^−1h^−1, and means within an experiment and sample date were compared using standard errors. […]
Soil-water data were converted from pot capacity weight to fraction of the transpirable soil water (FTSW) (de Silva et al., 1996). […] Soil weight at zero transpirable water was determined to be 0.24 of the soil weight at pot capacity. […]

[2] = tested on: glyphosate resistant soybean cultivar DK5961RR inoculated with B. japonicum (USDA 110); experiment: Seed-imbibed glyphosate: nodulation, greenhouse experiment; format: in vivo
Procedure: Pots 15-cm in diameter, with a total volume of 1.3 L were filled with a peat based potting mix that was saturated with a nitrogen-free nutrient solution. Six seeds from a particular glyphosate-concentration seed soak were planted in each pot and 1 ml of B. japonicum (USDA 110) containing approximately 4.24×10^6 cells was applied evenly across the surface and washed into the potting mix with 250 ml of minus N nutrients. Plants were thinned to one per pot after emergence. Day and night temperatures were approximately 30 and 24 C, respectively, and natural illumination was supplemented with 1000 W metal-halide lamps for a day length of 16 hours. […] Root nodules were scanned and images were used to determine nodule number and size as influenced by glyphosate treatment. The […] was repeated in a controlled environmental growth chamber with six replications. Growth chamber temperature was a constant 25 C and light and dark periods were 16 and 8 hours, respectively. Plants were harvested at 15 days after planting and sectioned as previously described (Example 1).

O=C(O)CNCP(=O)(O)O [glyphosate, N-(phosphonomethyl)glycine]
Sensitivity of ARA to water deficits vs untreated plants ([1]; in vivo): more sensitive
Nitrogenase activity, % of the well-watered control ([1]; water-deficit plants at FTSW of 0.21, 1.68 kg ha^−1 on 5, 12, and 19 DAE): 71%
Reduction in nodule number compared to the control ([2]; 3.1 mM glyphosate seed treatment, 10 DAP): ~30%
Nodule number ([2]; glyphosate concentrations greater than 3.1 mM): increased to values similar to that of plants from the control treatment
Average diameter of individual nodules ([2]; increasing glyphosate concentrations, 17 DAP): tended to decrease

From patent publication US6872562B2, “Herbicide resistant dinitrogen fixing bacteria and method of use” (priority 2001, dated 2005)
